Assay results published in patent publication US11242337B2, “Compounds useful for treating gastrointestinal tract disorders” (Ardelyx, Inc., priority 2017, dated 2022).

Experiments:
NHE3 = target: T1, NHE3 (Homo sapiens, UniProt P48764); assay: Cell-based assay of NHE-3 activity (persistent inhibition), human; conditions: human Persistence, 60 min incubation then washout
T1 construct: expressed in transfected cells
T1 sequence (P48764 26-834): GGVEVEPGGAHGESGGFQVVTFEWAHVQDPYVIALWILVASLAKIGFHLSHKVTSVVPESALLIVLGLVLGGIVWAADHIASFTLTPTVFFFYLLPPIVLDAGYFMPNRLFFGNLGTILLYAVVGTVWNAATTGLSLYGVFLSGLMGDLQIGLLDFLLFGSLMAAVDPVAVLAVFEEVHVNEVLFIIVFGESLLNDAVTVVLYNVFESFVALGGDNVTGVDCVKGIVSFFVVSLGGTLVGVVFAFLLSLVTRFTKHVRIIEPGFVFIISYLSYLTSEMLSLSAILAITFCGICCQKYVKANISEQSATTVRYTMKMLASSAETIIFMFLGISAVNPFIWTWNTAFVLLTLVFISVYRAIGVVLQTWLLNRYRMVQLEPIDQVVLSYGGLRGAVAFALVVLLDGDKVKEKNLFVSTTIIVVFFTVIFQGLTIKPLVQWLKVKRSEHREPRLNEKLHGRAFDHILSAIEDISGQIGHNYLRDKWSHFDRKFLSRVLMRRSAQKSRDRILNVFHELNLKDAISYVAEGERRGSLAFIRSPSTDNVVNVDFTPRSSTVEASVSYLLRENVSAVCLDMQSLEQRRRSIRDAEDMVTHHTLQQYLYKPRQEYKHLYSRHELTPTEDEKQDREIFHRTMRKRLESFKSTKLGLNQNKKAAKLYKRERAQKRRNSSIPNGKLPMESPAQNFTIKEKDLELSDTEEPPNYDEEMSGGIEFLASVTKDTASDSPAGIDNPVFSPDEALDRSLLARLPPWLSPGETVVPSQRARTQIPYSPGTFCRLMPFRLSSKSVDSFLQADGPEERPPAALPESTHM
T1 sequence (Q99653 2-195 partner limits assumed): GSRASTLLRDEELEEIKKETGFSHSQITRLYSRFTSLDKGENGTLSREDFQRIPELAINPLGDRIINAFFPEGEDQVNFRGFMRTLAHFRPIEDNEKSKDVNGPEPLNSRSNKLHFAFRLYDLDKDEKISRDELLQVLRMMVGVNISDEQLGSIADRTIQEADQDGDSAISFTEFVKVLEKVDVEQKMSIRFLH
In short: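 PS120 fibroblasts expressing human NHE3 with NHERF2 exposed to 0-30 μM compound for 60 min at RT, then washed out; cells acid-loaded by NH4Cl prepulse with BCECF-AM and Na+-free buffer. Na+-driven pH recovery started 10 min post-washout; initial rate of BCECF ratio change (FLIPR) taken as activity.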

[1] = test system: human duodenum monolayer culture; assay: Sustained inhibition of apical acid secretion in human organoid monolayer cell cultures (duodenum); type: cell-based; conditions: Homo sapiens
In short: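 Duodenum organoid cells were plated on Transwells, differentiated with EGF/noggin/A83-01 from day 3, and dosed apically on day 6 with compound at 1 μM final (DMSO vehicle control), in duplicate wells, at 37° C, 5% CO2. Apical media pH was measured by electrode on day 8.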

Row | Compound | % inhibition (NHE3) | pIC50 (NHE3) | inhibition at 1 µM [1] [%] | IC50 (NHE3) [nM]
1 | Cc1cc(S(=O)(=O)N[C@H]2CCN(CCOCCNC(=O)NCCCCNC(=O)NCCOCCN3CC[C@H](NS(=O)(=O)c4ccc(O[C@H]5c6cc(Cl)cc(Cl)c6C[C@@H]5N(C)C)c(C)c4)C3=O)C2=O)ccc1O[C@H]1c2cc(Cl)cc(Cl)c2C[C@@H]1N(C)C [Example 91, 1-(2-[2-[(3S)-3-[(4-[[(1S,2S)-4,6-Dichloro-2-(dimethylamino)-2,3-dihydro-1H-inden-1-yl]oxy]-3-methylbenzene)sulfonamido]-2-oxopyrrolidin-1-yl]ethoxy]ethyl)-3-(4-[[(2-[2-[(3S)-3-[(4-[[(1S,2S)-4,6-dichloro-2-(dimethylamino)-2,3-dihydro-1H-inden-1-yl]oxy]-3-methylbenzene)sulfonamido]-2-oxopyrrolidin-1-yl]ethoxy]ethyl)carbamoyl]amino]butyl)urea] | C (>70%) | C (NHE3 pIC50 > 7) | > 70 | –
2 | O=C(NCCCCNC(=O)NCCOCCN1CC[C@@H](NS(=O)(=O)c2ccc(O[C@H]3c4cc(Cl)cc(Cl)c4C[C@@H]3N3CCNCC3)c(F)c2)C1)NCCOCCN1CC[C@@H](NS(=O)(=O)c2ccc(O[C@H]3c4cc(Cl)cc(Cl)c4C[C@@H]3N3CCNCC3)c(F)c2)C1 [Example 105, 4-([(1S,2S)-4,6-Dichloro-2-(piperazin-1-yl)-2,3-dihydro-1H-inden-1-yl]oxy)-N—[(R)-1-(20-[(R)-3-([4-([(1S2S)-4,6-dichloro-2-(piperazin-1-yl)-2,3-dihydro-1H-inden-1-yl]oxy)-3-fluorophenyl]sulfonamido)pyrrolidin-1-yl]-7,14-dioxo-3,18-dioxa-6,8,13,15-tetraazaicosyl)pyrrolidin-3-yl]-3-fluorobenzenesulfonamide; tetra(trifluoroacetate)] | C (>70%) | – | > 70 | < 100
3 | O=C(NCCCCNC(=O)NCCOCCN1CC[C@H](NS(=O)(=O)c2ccc(O[C@H]3c4cc(Cl)cc(Cl)c4C[C@@H]3N3CCNCC3)c(F)c2)C1)NCCOCCN1CC[C@H](NS(=O)(=O)c2ccc(O[C@H]3c4cc(Cl)cc(Cl)c4C[C@@H]3N3CCNCC3)c(F)c2)C1 [Example 106, 4-([(1S,2S)-4,6-Dichloro-2-(piperazin-1-yl)-2,3-dihydro-1H-inden-1-yl]oxy)-N—[(S)-1-(20-[(S)-3-([4-([(1S,2S)-4,6-dichloro-2-(piperazin-1-yl)-2,3-dihydro-1H-inden-1-yl]oxy)-3-fluorophenyl]sulfonamido)pyrrolidin-1-yl]-7,14-dioxo-3,18-dioxa-6,8,13,15-tetraazaicosyl)pyrrolidin-3-yl]-3-fluorobenzenesulfonamide; tetra(trifluoroacetate)] | C (>70%) | – | > 70 | –
4 | N#Cc1cc(Cl)cc2c1C[C@H](N1CCNCC1)[C@H]2Oc1ccc(S(=O)(=O)N[C@H]2CCN(CCOCCNC(=O)NCCCCNC(=O)NCCOCCN3CC[C@H](NS(=O)(=O)c4ccc(O[C@H]5c6cc(Cl)cc(C#N)c6C[C@@H]5N5CCNCC5)cc4)C3)C2)cc1 [Example 107, 4-([(1S,2S)-6-Chloro-4-cyano-2-(piperazin-1-yl)-2,3-dihydro-1H-inden-1-yl]oxy)-N—[(S)-1-(20-[(S)-3-([4-([(1S,2S)-6-chloro-4-cyano-2-(piperazin-1-yl)-2,3-dihydro-1H-inden-1-yl]oxy)phenyl]sulfonamido)pyrrolidin-1-yl]-7,14-dioxo-3,18-dioxa-6,8,13,15-tetraazaicosyl)pyrrolidin-3-yl]benzenesulfonamide; tetra(trifluoroacetate)] | C (>70%) | C (NHE3 pIC50 > 7) | > 70 | –
5 | N#Cc1cc(Cl)cc2c1C[C@H](N1CCNCC1)[C@H]2Oc1ccc(S(=O)(=O)N[C@@H]2CCN(CCOCCNC(=O)NCCCCNC(=O)NCCOCCN3CC[C@@H](NS(=O)(=O)c4ccc(O[C@H]5c6cc(Cl)cc(C#N)c6C[C@@H]5N5CCNCC5)c(F)c4)C3)C2)cc1F [Example 109, 4-([(1S,2S)-6-Chloro-4-cyano-2-(piperazin-1-yl)-2,3-dihydro-1H-inden-1-yl]oxy)-N—[(R)-1-(20-[(R)-3-[(4-([(1S,2S)-6-chloro-4-cyano-2-(piperazin-1-yl)-2,3-dihydro-1H-inden-1-yl]oxy)-3-fluorophenyl)sulfonamide)pyrrolidin-1-yl]-7,14-dioxo-3,18-dioxa-6,8,13,15-tetraazaicosyl)pyrrolidin-3-yl]-3-fluorobenzenesulfonamide; tetra(trifluoroacetate)] | C (>70%) | C (NHE3 pIC50 > 7) | > 70 | –
6 | N#Cc1cc(Cl)cc2c1C[C@H](N1CCNCC1)[C@H]2Oc1ccc(S(=O)(=O)N[C@H]2CCN(CCOCCNC(=O)NCCCCNC(=O)NCCOCCN3CC[C@H](NS(=O)(=O)c4ccc(O[C@H]5c6cc(Cl)cc(C#N)c6C[C@@H]5N5CCNCC5)c(F)c4)C3)C2)cc1F [Example 110, 4-([(1S,2S)-6-Chloro-4-cyano-2-(piperazin-1-yl)-2,3-dihydro-1H-inden-1-yl]oxy)-N—[(S)-1-(20-[(S)-3-[(4-([(1S,2S)-6-chloro-4-cyano-2-(piperazin-1-yl)-2,3-dihydro-1H-inden-1-yl]oxy)-3-fluorophenyl)sulfonamide)pyrrolidin-1-yl]-7,14-dioxo-3,18-dioxa-6,8,13,15-tetraazaicosyl)pyrrolidin-3-yl]-3-fluorobenzenesulfonamide; tetra(trifluoroacetate)] | C (>70%) | C (NHE3 pIC50 > 7) | > 70 | –
7 | N#Cc1cc(Cl)cc2c1C[C@H](N1CCNCC1)[C@H]2Oc1ccc(S(=O)(=O)NC2CCN(C(=O)CCCNC(=O)NCCCCNC(=O)NCCCC(=O)N3CCC(NS(=O)(=O)c4ccc(O[C@H]5c6cc(Cl)cc(C#N)c6C[C@@H]5N5CCNCC5)cc4)CC3)CC2)cc1 [Example 115] | C (>70%) | C (NHE3 pIC50 > 7) | > 70 | –
8 | CN(C)[C@H]1CCCN([C@H]2Cc3c(C#N)cc(Cl)cc3[C@@H]2Oc2ccc(S(=O)(=O)NCCOCCOCCNC(=O)NCCCCNC(=O)NCCOCCOCCNS(=O)(=O)c3ccc(O[C@H]4c5cc(Cl)cc(C#N)c5C[C@@H]4N4CCC[C@H](N(C)C)C4)cc3)cc2)C1 [Example 122, 4-([(1S,2S)-6-Chloro-4-cyano-2-[(S)-3-(dimethylamino)piperidin-1-yl]-2,3-dihydro-1H-inden-1-yl]oxy)-N-[26-([4-([(1S,2S)-6-chloro-4-cyano-2-[(S)-3-(dimethylamino)piperidin-1-yl]-2,3-dihydro-1H-inden-1-yl]oxy)phenyl]sulfonamido)-10,17-dioxo-3,6,21,24-tetraoxa-9,11,16,18-tetraazahexacosyl]benzenesulfonamide] | C (>70%) | C (NHE3 pIC50 > 7) | > 70 | –
9 | N#Cc1cc(Cl)cc2c1C[C@H](N1CCNCC1)[C@H]2Oc1ccc(S(=O)(=O)NC2CCN(CCOCCNC(=O)NCCCCNC(=O)NCCOCCN3CCC(NS(=O)(=O)c4ccc(O[C@H]5c6cc(Cl)cc(C#N)c6C[C@@H]5N5CCNCC5)cc4)CC3)CC2)cc1 [Example 123, 4-([(1S,2S)-6-Chloro-4-cyano-2-(piperazin-1-yl)-2,3-dihydro-1H-inden-1-yl]oxy)-N-[1-(20-[4-([4-([(1S,2S)-6-chloro-4-cyano-2-(piperazin-1-yl)-2,3-dihydro-1H-inden-1-yl]oxy)phenyl]sulfonamide]piperidin-1-yl)-7,14-dioxo-3,18-dioxa-6,8,13,15-tetraazaicosyl]piperidin-4-yl)benzenesulfonamide] | C (>70%) | C (NHE3 pIC50 > 7) | > 70 | –
10 | N#Cc1cc(Cl)cc2c1C[C@H](N1CCCNCC1)[C@H]2Oc1ccc(S(=O)(=O)N[C@H]2CCN(CCOCCNC(=O)NCCCCNC(=O)NCCOCCN3CC[C@H](NS(=O)(=O)c4ccc(O[C@H]5c6cc(Cl)cc(C#N)c6C[C@@H]5N5CCCNCC5)cc4)C3)C2)cc1 [Example 126, 4-([(1S,2S)-6-Chloro-4-cyano-2-(1,4-diazepan-1-yl)-2,3-dihydro-1H-inden-1-yl]oxy)-N—[(S)-1-(20-[(S)-3-([4-([(1S,2S)-6-chloro-4-cyano-2-(1,4-diazepan-1-yl)-2,3-dihydro-1H-inden-1-yl]oxy)phenyl]sulfonamido)pyrrolidin-1-yl]-7,14-dioxo-3,18-dioxa-6,8,13,15-tetraazaicosyl)pyrrolidin-3-yl]benzenesulfonamide] | B (40-70%) | – | < 50 | < 100
